Measurements as given in US20250250537A1, “IN VITRO INSECT FAT CULTIVATION FOR CELLULAR AGRICULTURE APPLICATIONS” (Trustees of Tufts College, priority 2022, published 2025).

Key:
[1] = system: Ms PCs; assay: Lipid accumulation screen in Ms PCs (BODIPY and Oil Red O staining, Oil Red O dye elution); type: cell-based, M. sexta; conditions: 1 mM, 7 days in culture
Method: To screen for lipid accumulation in Ms PCs, cells were seeded at 100,000 cells/cm^2 in 48-well plates. After 24 hours in culture, media was refreshed with growth media supplemented with variable concentrations (0, 0.01, 0.1, 1 mM) of water-soluble oleic acid (01257, Sigma-Aldrich) or Intralipid (I141, Sigma-Aldrich). After seven days in culture, cells were stained with BODIPY ([…], Fisher Scientific) at a 1:2,000 dilution and NucBlue (R37605, Fisher Scientific) or fixed and stained with Oil Red O (O0625, Sigma-Aldrich). Cells were imaged on a fluorescence microscope (BZ-X800, Keyence). To quantify lipid accumulation, Oil Red O dye from each condition was eluted with isopropanol and absorbance (500 nm) was measured on a microplate reader. To investigate lipid accumulation over time, cells were treated with 0.1 mM of Intralipid and stained with BODIPY and NucBlue on days 1, 4, 7 and 14.

[2] = system: S2 cells; conditions: 1 mM over 24 hours; cited from earlier work

CCCCCCCC/C=C\CCCCCCCC(=O)O [oleic acid]
lipid droplet formation (BODIPY and Oil Red O staining) [1]: visible | morphology, growth and viability of treated cells [1]: unhealthy morphology, minimal growth, and were assumed to be nonviable | increase in triacylglycerol content [2]: 5 fold
